Data taken from patent US11566007B2, “Ras inhibitors” (Revolution Medicines, Inc., priority 2019, dated 2023).
Like-named read-outs stand apart in the source and are kept apart here.

Assays:
[1] = tested on: NCI-H358 cells (K-Ras G12C); assay: Potency assay: pERK in NCI-H358 cells; format: cell-based, human; settings: H358 KRAS G12C, read-out: pERK EC50
Procedure, shortened: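 pERK decrease read by AlphaLISA SureFire p-ERK1/2 or In-Cell Western after 4 h compound exposure at 37 °C, 5% CO2.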

NCI-H358 (K-Ras G12C) = assay: CellTiter-Glo cell viability assay, NCI-H358; format: cell-based, human; settings: Homo sapiens, NCI-H358, 120 h, NCI-H358, 5-day treatment; class symbols; read-out: Additional H358 Cell Viability assay data (K-Ras G12C, IC50)
Procedure, shortened: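 Compounds dispensed directly onto seeded K-Ras mutant cells; plates read on day 5 after ~30 min equilibration to room temperature, by CellTiter-Glo luminescence. Signal normalized as (sample/mean DMSO)×100, then fitted to a four-parameter logistic curve.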

K-Ras G12C = K-Ras G12C (Homo sapiens (Human), UniProt P01116+P62937, G12C); assay: Ras-Raf (BRAF RBD) disruption / FRET / MOA assay, KRAS G12C; format: biochemical; settings: KRAS G12C; Ras-Raf disruption/FRET/MOA assay; read-out: IC50* KRAS G12C FRET data
Procedure, shortened: (§1)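 TR-FRET read-out: a drop in ratio relative to DMSO wells marks disruption of the Ras:RAF complex, reported as IC50. Compounds (3-fold series, 10 points, top 30 μM final) incubated 3 h at 25° C before Eu-anti-His 10 nM and APC-anti-GST 50 nM, 1.5 h more.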

K-Ras G13C = K-Ras G13C (Homo sapiens (Human), UniProt P01116+P62937, G13C); assay: Ras-Raf (BRAF RBD) disruption / FRET / MOA assay, KRAS G13C; format: biochemical; settings: KRAS G13C; Ras-Raf disruption/FRET/MOA assay; read-out: IC50* KRAS G13C FRET data
Procedure, shortened: as §1

KRAS G12S = KRAS G12S (Homo sapiens (Human), UniProt P01116+P62937, G12S); assay: Ras-Raf (BRAF RBD) disruption / FRET / MOA assay, KRAS G12S; format: biochemical; settings: Ras-Raf disruption/FRET/MOA assay; class symbols; read-out: KRAS G12S FRET data IC50
Procedure, shortened: as §1

KRAS G12D = KRAS G12D (Homo sapiens (Human), UniProt P01116+P62937, G12D); assay: Ras-Raf (BRAF RBD) disruption / FRET / MOA assay, KRAS G12D; format: biochemical; settings: Ras-Raf disruption/FRET/MOA assay; class symbols; read-out: KRAS G12D FRET data IC50
Procedure, shortened: as §1

KRAS G12V = KRAS G12V (Homo sapiens (Human), UniProt P01116+P62937, G12V); assay: Ras-Raf (BRAF RBD) disruption / FRET / MOA assay, KRAS G12V; format: biochemical; settings: read-out: IC50* KRAS G12V FRET data
Procedure, shortened: as §1

KRAS WT = KRAS WT (Homo sapiens (Human), UniProt P01116+P62937); assay: Ras-Raf (BRAF RBD) disruption / FRET / MOA assay, KRAS WT; format: biochemical; settings: read-out: IC50* KRAS WT FRET data
Procedure, shortened: as §1

KRAS G13D = KRAS G13D (Homo sapiens (Human), UniProt P01116+P62937, G13D); assay: Ras-Raf (BRAF RBD) disruption / FRET / MOA assay, KRAS G13D; format: biochemical; settings: read-out: IC50* KRAS G13D FRET data
Procedure, shortened: as §1

NRAS G12C = NRAS G12C (Homo sapiens (Human), UniProt P01111+P62937, G12C); assay: Ras-Raf (BRAF RBD) disruption / FRET / MOA assay, NRAS G12C; format: biochemical; settings: read-out: IC50* NRAS G12C FRET data
Procedure, shortened: as §1

KRAS G13D, sequence (P01116-2 other isoform, or with tags, fused parts or gaps G13D): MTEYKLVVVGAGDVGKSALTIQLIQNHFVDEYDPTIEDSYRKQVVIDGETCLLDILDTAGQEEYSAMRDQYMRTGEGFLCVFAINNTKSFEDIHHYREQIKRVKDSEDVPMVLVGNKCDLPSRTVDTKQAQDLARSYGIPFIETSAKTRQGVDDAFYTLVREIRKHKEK
KRAS G13D, sequence (P62937 whole entry): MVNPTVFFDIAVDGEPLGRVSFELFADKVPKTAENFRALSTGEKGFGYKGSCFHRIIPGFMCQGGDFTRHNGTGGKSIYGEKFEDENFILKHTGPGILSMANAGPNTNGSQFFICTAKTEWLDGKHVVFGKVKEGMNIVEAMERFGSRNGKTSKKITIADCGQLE
KRAS G12D, sequence (P01116-2 other isoform, or with tags, fused parts or gaps G12D): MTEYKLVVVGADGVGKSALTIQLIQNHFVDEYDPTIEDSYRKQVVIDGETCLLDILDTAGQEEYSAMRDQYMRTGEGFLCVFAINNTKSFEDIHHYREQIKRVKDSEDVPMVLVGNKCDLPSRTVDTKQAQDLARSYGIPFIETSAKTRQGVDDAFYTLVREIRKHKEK
KRAS G12D, sequence (P62937 whole entry): as the sequence (P62937 whole entry) above
K-Ras G12C, sequence (P01116-2 other isoform, or with tags, fused parts or gaps G12C): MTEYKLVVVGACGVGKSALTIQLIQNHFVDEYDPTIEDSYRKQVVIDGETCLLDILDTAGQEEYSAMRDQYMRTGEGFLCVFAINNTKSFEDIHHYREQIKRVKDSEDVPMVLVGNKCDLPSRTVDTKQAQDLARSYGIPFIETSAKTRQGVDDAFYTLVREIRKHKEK
K-Ras G12C, sequence (P62937 whole entry): as the sequence (P62937 whole entry) above
K-Ras G13C, sequence (P01116-2 other isoform, or with tags, fused parts or gaps G13C): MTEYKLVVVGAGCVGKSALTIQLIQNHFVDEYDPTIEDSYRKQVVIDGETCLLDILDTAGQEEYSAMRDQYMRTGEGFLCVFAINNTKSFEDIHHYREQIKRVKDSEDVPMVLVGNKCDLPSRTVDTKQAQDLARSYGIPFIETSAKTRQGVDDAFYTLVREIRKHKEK
K-Ras G13C, sequence (P62937 whole entry): as the sequence (P62937 whole entry) above
KRAS G12S, sequence (P01116-2 other isoform, or with tags, fused parts or gaps G12S): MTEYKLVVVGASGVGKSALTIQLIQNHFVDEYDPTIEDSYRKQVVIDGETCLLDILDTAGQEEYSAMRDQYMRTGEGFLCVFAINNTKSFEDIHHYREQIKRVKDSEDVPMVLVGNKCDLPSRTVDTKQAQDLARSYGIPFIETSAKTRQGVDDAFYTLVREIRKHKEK
KRAS G12S, sequence (P62937 whole entry): as the sequence (P62937 whole entry) above
KRAS G12V, sequence (P01116-2 other isoform, or with tags, fused parts or gaps G12V): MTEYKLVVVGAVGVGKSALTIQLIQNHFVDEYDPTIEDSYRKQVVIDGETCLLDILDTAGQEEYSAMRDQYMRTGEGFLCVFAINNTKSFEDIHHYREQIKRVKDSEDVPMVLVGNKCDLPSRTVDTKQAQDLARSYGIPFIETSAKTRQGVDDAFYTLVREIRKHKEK
KRAS G12V, sequence (P62937 whole entry): as the sequence (P62937 whole entry) above
KRAS WT, sequence (P01116-2 other isoform, or with tags, fused parts or gaps): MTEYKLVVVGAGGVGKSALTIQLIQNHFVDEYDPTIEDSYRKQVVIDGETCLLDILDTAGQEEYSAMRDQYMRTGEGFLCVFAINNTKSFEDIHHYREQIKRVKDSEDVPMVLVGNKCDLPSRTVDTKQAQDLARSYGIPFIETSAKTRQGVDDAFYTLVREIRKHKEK
KRAS WT, sequence (P62937 whole entry): as the sequence (P62937 whole entry) above
NRAS G12C, sequence (P01111 whole entry G12C): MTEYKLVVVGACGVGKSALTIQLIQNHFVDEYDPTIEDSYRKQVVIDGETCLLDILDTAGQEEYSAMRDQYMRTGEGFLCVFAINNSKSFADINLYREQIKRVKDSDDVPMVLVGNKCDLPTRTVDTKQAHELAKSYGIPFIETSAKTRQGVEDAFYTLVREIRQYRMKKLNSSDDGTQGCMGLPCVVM
NRAS G12C, sequence (P62937 whole entry): as the sequence (P62937 whole entry) above

SMILES	EC50 [1] [µM]	IC50 (NCI-H358 (K-Ras G12C)) [nM]	IC50 (K-Ras G12C) [nM]	IC50 (K-Ras G13C) [nM]	IC50 (KRAS G12S) [nM]	IC50 (KRAS G12D) [µM]	IC50 (KRAS G12V) [nM]	IC50 (KRAS WT) [nM]	IC50 (KRAS G13D) [nM]	IC50 (NRAS G12C) [nM]	EC50 ([1]; Homo sapiens, NCI-H358) [µM]
C=CC(=O)Nc1cnc(C(=O)N(C)[C@H](C(=O)N[C@H]2Cc3cc(O)cc(c3)-c3ccc4c(c3)c(c(-c3cccnc3[C@H](C)OC)n4CC)CC(C)(C)COC(=O)[C@@H]3CCCN(N3)C2=O)C(C)C)n1C (atropisomer, axis not shown) [Example A255]	< 5	< 10	< 10	< 10	10 to 100	0.1 to 1	100 to 1000	100 to 1000	100 to 1000	< 10	–
CCn1c(-c2cccnc2[C@H](C)OC)c2c3cc(ccc31)-c1csc(n1)C[C@H](NC(=O)[C@H](C(C)C)N(C)C(=O)N1CCN(C(=O)C#CC(C)(C)N(C)C)CC1)C(=O)N1CCC[C@H](N1)C(=O)OCC(C)(C)C2 (atropisomer, axis not shown) [Example A479]	–	< 10	< 10	10 to 100	10 to 100	0.1 to 1	10 to 100	10 to 100	100 to 1000	< 10	< 5
C=CC(=O)N1CC(OC[C@H](C(=O)N[C@H]2Cc3nc(cs3)-c3ccc4c(c3)c(c(-c3cccnc3[C@H](C)OC)n4CC)CC(C)(C)COC(=O)[C@@H]3CCCN(N3)C2=O)C(C)C)C1 (atropisomer, axis not shown) [Example A462]	–	< 10	100 to 1000	1000 to 10000	1000 to 10000	> 10	1000 to 10000	1000 to 10000	> 10000	100 to 1000	< 5
CCn1c(-c2cccnc2[C@H](C)OC)c2c3cc(ccc31)-c1cccc(c1)C[C@H](NC(=O)CCOC1CN(C(=O)C#CC(C)(C)N3CCC3)C1)C(=O)N1CCC[C@H](N1)C(=O)OCC(C)(C)C2 (atropisomer, axis not shown) [Example A478]	–	10 to 100	10 to 100	> 10000	> 10000	> 10	> 10000	> 10000	> 10000	10 to 100	< 5
C=CC(=O)N1CCC2(CC1)OCN([C@H](C(=O)N[C@H]1Cc3cccc(c3)-c3ccc4c(c3)c(c(-c3cccnc3[C@H](C)OC)n4CC)CC(C)(C)COC(=O)[C@@H]3CCCN(N3)C1=O)C(C)C)C2=O (atropisomer, axis not shown) [Example A457]	–	10 to 100	100 to 1000	100 to 1000	1000 to 10000	> 10	1000 to 10000	100 to 1000	1000 to 10000	100 to 1000	< 5
CC#CC(=O)N1CC[C@H](C(=O)N(C)[C@H](C(=O)N[C@H]2Cc3nc(cs3)-c3ccc4c(c3)c(c(-c3cccnc3[C@H](C)OC)n4CC)CC(C)(C)COC(=O)[C@@H]3CCCN(N3)C2=O)C2CCCC2)C1 (atropisomer, axis not shown) [Example A309]	–	< 10	1000 to 10000	1000 to 10000	1000 to 10000	> 10	1000 to 10000	1000 to 10000	> 10000	1000 to 10000	< 5
CC#CC(=O)N1CC[C@]2(CCN([C@H](C(=O)N[C@H]3Cc4nc(cs4)-c4ccc5c(c4)c(c(-c4cccnc4[C@H](C)OC)n5CC)CC(C)(C)COC(=O)[C@@H]4CCCN(N4)C3=O)C(C)C)C2=O)C1 (atropisomer, axis not shown) [Example A511]	–	< 10	100 to 1000	1000 to 10000	1000 to 10000	> 10	1000 to 10000	1000 to 10000	1000 to 10000	100 to 1000	< 5
